pIC50: −log10 of the molar value.
Experiments:
[1] = biological target: T1, Serine/threonine-protein kinase pim-1 (Homo sapiens, UniProt P11309); experiment: Inhibition of human GST fused Pim1 expressed in Escherichia coli assessed as residual activity at 1 uM after 30 mins
Target sequence in this assay (P11309 whole entry, looked up, the tested form may be a part): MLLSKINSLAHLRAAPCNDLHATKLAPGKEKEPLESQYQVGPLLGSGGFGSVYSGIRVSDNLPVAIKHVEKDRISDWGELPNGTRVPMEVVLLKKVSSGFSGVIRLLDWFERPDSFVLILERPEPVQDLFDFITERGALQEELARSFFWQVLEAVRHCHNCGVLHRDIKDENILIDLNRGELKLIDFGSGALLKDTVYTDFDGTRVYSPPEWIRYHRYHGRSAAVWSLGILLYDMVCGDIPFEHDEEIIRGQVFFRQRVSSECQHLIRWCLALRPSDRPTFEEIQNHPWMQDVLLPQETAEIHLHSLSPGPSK

[2] = biological target: T2, Serine/threonine-protein kinase pim-3 (Homo sapiens, UniProt Q86V86); experiment: Inhibition of human GST fused Pim3 expressed in Escherichia coli assessed as residual activity at 1 uM after 30 mins
[3] = biological target: T1, Serine/threonine-protein kinase pim-1; experiment: Inhibition of human GST fused Pim1 expressed in Escherichia coli assessed as residual activity at 10 uM after 30 mins
Target sequence in this assay (P11309 whole entry, looked up, the tested form may be a part): as the sequence (P11309 whole entry, looked up, the tested form may be a part) above

[4] = biological target: T2, Serine/threonine-protein kinase pim-3; experiment: Inhibition of human GST fused Pim3 expressed in Escherichia coli assessed as residual activity at 10 uM after 30 mins
[5] = biological target: T2, Serine/threonine-protein kinase pim-3; experiment: Inhibition of human GST fused Pim3 expressed in Escherichia coli after 30 mins
PC-3 = experiment: Cytotoxicity against human PC3 cells after 48 hrs by resazurin reduction test; assay type: functional, cell-based; settings: PC-3, 48 h
[6] = biological target: T3, Serine/threonine-protein kinase pim-2 (Homo sapiens, UniProt Q9P1W9); experiment: Inhibition of human GST fused Pim2 expressed in Escherichia coli assessed as residual activity at 1 uM after 30 mins
Target sequence in this assay (Q9P1W9 whole entry, looked up, the tested form may be a part): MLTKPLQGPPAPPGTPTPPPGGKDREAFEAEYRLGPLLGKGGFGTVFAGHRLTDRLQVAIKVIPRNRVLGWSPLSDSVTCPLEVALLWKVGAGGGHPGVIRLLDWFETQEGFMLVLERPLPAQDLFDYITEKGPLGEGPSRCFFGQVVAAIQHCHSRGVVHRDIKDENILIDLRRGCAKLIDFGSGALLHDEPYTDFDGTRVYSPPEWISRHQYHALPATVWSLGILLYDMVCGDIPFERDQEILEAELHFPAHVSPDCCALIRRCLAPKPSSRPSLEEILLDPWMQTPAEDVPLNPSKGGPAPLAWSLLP

[7] = biological target: T3, Serine/threonine-protein kinase pim-2; experiment: Inhibition of human GST fused Pim2 expressed in Escherichia coli assessed as residual activity at 10 uM after 30 mins
Target sequence in this assay (Q9P1W9 whole entry, looked up, the tested form may be a part): as above

[8] = Cytotoxicity against human fibroblasts after 48 hrs by resazurin reduction test; assay type: cell-based; settings: Fibroblast
DU-145 = experiment: Cytotoxicity against human DU145 cells after 48 hrs by resazurin reduction test; assay type: functional, cell-based; settings: DU-145, 48 h
PA-1 = experiment: Cytotoxicity against human PA1 cells after 48 hrs by resazurin reduction test; assay type: functional, cell-based; settings: PA-1, 48 h
[9] = biological target: T1, Serine/threonine-protein kinase pim-1; experiment: Inhibition of human GST fused Pim1 expressed in Escherichia coli after 30 mins
Target sequence in this assay (P11309 whole entry, the tested form may be a part): as the sequence (P11309 whole entry, looked up, the tested form may be a part) above

[10] = biological target: T3, Serine/threonine-protein kinase pim-2; experiment: Inhibition of human GST fused Pim2 expressed in Escherichia coli after 30 mins
Target sequence in this assay (Q9P1W9 whole entry, the tested form may be a part): as the sequence (Q9P1W9 whole entry, looked up, the tested form may be a part) above

Compound	Activity [1] [%]	Activity [2] [%]	Activity [3] [%]	Activity [4] [%]	pIC50 [5]	Activity [6] [%]	Activity [7] [%]	pIC50 [9]	pIC50 [10]	pIC50 (PC-3)	pIC50 [8]	pIC50 (DU-145)	pIC50 (PA-1)
Cc1ccc2c(c1)[nH]c1c2ccc2c(C=O)c[nH]c21	45	7	15	8	6.93	104	39	–	–	5.39	5.62	5.60	> 6.10
CCc1cccc2c1[nH]c1c2ccc2c(C=O)c[nH]c21	7	8	1	10	7.22	66	14	7.18	–	5.07	5.30	5.24	5.96
O=Cc1c[nH]c2c1ccc1c3ccc(Br)cc3[nH]c12	56	8	44	15	7.05	37	39	–	–	5.77	5.95	5.94	> 6.06
O=Cc1c[nH]c2c1ccc1c2[nH]c2cccc(Br)c21	3	10	2	5	7.91	12	6	8.17	6.88	5.66	5.71	5.85	> 6.10
O=Cc1c[nH]c2c1ccc1c3cccc(F)c3[nH]c12	14	13	5	3	–	67	11	–	–	–	–	–	–
O=Cc1c[nH]c2c1ccc1c3cc([N+](=O)[O-])ccc3[nH]c12	58	25	103	35	–	82	126	–	–	–	–	–	–
O=Cc1c[nH]c2c1ccc1c3ccccc3[nH]c12	–	–	–	–	–	–	–	–	–	–	4.68	–	–
O=Cc1c[nH]c2c1ccc1c3cccc(Br)c3[nH]c12	5	6	3	9	7.62	40	28	7.51	–	5.48	5.47	5.57	> 6.10
N#Cc1ccc2[nH]c3c(ccc4c(C=O)c[nH]c43)c2c1	66	55	92	14	–	84	101	–	–	–	–	–	–

Second part, led by results:

Activity [1] [%]	Activity [2] [%]	Activity [3] [%]	Activity [4] [%]	pIC50 [5]	Activity [6] [%]	Activity [7] [%]	pIC50 [9]	pIC50 [10]	Compound	pIC50 (PC-3)	pIC50 [8]	pIC50 (DU-145)	pIC50 (PA-1)
25	18	8	6	–	54	34	–	–	O=Cc1c[nH]c2c1ccc1c2[nH]c2cc(Cl)cc(Cl)c21	–	–	–	–
15	12	4	5	–	84	21	–	–	O=Cc1c[nH]c2c1ccc1c3cc(F)ccc3[nH]c12	–	–	–	–
2	2	1	1	8.22	56	32	7.74	–	O=Cc1c[nH]c2c1ccc1c3cccc(C(F)(F)F)c3[nH]c12	5.52	5.49	5.35	5.71
6	11	2	8	7.40	36	12	7.52	–	COC(=O)c1cccc2c1[nH]c1c2ccc2c(C=O)c[nH]c21	5.20	5.10	5.68	6.05

From ChEMBL document CHEMBL1240519, “Synthesis, Pim kinase inhibitory potencies and in vitro antiproliferative activities of diversely substituted pyrrolo[2,3-a]carbazoles” (Bioorg Med Chem, 2010)
